The subject of data set [1] is LNCaP xenograft tumor. Description: Ex vivo biodistribution in LNCaP xenograft tumor-bearing mice. The settings on record: for Tumor uptake relative to [68Ga]Ga-PSMA-HBED-CC: at the time of maximum tumor uptake; for Time p.i. of max. LNCaP tumor uptake: biodistribution at 1, 2, 4 h; for Max. LNCaP Tumor Uptake: biodistribution; for Max. LNCaP Tumor Uptake / Tumor uptake: n=5. On the procedure: (§1) Inoculation of mice with xenografts. All animal studies were approved by the Institutional Animal Care and Use Committee of Weill Cornell Medicine and were undertaken in accordance with the guidelines set forth by the USPHS Policy on Humane Care and Use of Laboratory Animals. Animals were housed under standard conditions in approved facilities with 12 h light/dark cycles. Food and water was provided ad libitum throughout the course of the studies. Male inbred athymic nu/nu mice were purchased from The Jackson Laboratory. For inoculation in mice, LNCaP cells were suspended at 4×10^7 cells/mL in a 1:1 mixture of PBS:Matrigel (BD Biosciences). Each mouse was injected in the left flank with 0.25 mL of the cell suspension. The mice were imaged when the tumors reached approximately 200-400 mm^3, while biodistributions were conducted when tumors were in the range 100-400 mm^3.
Biodistribution. LNCaP xenograft tumor-bearing mice (n=5 per time point) were injected via the tail vein with a bolus injection of 370 kBq (10 μCi) of either [^18F]RPS-040 or [^18F]RPS-041. The specific activity of the compounds was […], respectively. The mice were euthanized by asphyxiation under isofluorane at 1 h, 2 h and 4 h post injection. An additional set of mice (n=5) was co-administered [^18F]RPS-040 (370 kBq; 10 μCi) and 2-PMPA (approx. 250 μg; 10 mg/kg) and sacrificed at 1 h post injection to determine the uptake specificity. A full biodistribution study was conducted on all mice, and tissues were excised, weighed and counted in an automated γ-counter. Tissue time-activity values were expressed as percentage injected dose per gram of tissue (% ID/g). Statistical comparisons were performed using the standard Student's t-test for a 95% confidence interval.

Data set [2] relates to LNCaP xenograft tumor. Description: microPET/CT imaging of LNCaP xenograft tumor-bearing mice. The format is in vivo. The note with it: for Max. LNCaP Tumor Uptake: image derived calculation of tumor uptake (microPET/CT), at time of maximum uptake; for Time p.i. of max. LNCaP tumor uptake: microPET/CT imaging at 1, 2, 4, 6 h; for Route of clearance / excretion: from microPET/CT images. The procedure:
as §1
Imaging. […] Specific activity was greater than […]. The mice were imaged by pPET/CT (Inveon™; Siemens Medical Solutions, Inc.) at 1 h, 2 h, 4 h, and 6 h post-injection ([^18F]fluorinated compounds) or 1 h and 3 h post-injection ([^68Ga]Ga-PSMA-HBED-CC). Total acquisition time was thirty minutes, and a CT scan was obtained either immediately before or immediately after the acquisition for both anatomical co-registration and attenuation correction. The data were reconstructed using the commercial Inveon™ software supplied by the vendor. Tumor uptake was estimated by drawing a region of interest (ROI).

Data set [3] deals with T1, PSMA on LNCaP cells (Homo sapiens, UniProt Q04609).
T1 construct: host or cells: LNCaP
T1 sequence (Q04609 whole entry): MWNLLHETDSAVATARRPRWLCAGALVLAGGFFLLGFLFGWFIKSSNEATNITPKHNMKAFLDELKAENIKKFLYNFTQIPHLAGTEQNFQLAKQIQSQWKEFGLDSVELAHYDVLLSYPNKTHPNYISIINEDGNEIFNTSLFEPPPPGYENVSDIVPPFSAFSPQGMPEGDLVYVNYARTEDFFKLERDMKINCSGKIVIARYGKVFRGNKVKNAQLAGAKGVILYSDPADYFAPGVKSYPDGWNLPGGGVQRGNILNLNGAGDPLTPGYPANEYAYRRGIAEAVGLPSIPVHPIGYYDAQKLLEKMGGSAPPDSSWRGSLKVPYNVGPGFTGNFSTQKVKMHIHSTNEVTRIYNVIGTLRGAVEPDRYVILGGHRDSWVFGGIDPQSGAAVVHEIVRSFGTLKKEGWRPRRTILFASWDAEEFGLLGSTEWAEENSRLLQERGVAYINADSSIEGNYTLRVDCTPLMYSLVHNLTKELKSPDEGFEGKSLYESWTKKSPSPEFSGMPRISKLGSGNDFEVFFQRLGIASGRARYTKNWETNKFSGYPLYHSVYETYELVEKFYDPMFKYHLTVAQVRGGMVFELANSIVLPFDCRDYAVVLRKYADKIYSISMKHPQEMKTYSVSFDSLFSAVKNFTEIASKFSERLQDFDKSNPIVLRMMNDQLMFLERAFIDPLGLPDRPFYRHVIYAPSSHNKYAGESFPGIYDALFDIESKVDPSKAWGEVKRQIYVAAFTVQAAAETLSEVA
Put plainly: Competitive binding assay against 99mTc-MIP-1427 for binding to PSMA on LNCaP cells. The settings on record: non-radioactive fluorine-containing ligands, 1 nM 99mTc-MIP-1427, 1 hour. The procedure: Cell Culture. The human prostate cancer cell line, LNCaP, was obtained from the American Type Culture Collection. Cell culture supplies were from Invitrogen unless otherwise noted. LNCaP cells were maintained in RPMI-1640 medium supplemented with 10% fetal bovine serum (Hyclone), 4 mM L-glutamine, 1 mM sodium pyruvate, 10 mM N-2-hydroxyethylpiperazine-N-2-ethanesulfonic acid (HEPES), 2.5 mg/mL D-glucose, and 50 μg/mL gentamicin in a humidified incubator at 37° C./5% C02. Cells were removed from flasks for passage or for transfer to 12-well assay plates by incubating them with 0.25% trypsin/ethylenediaminetetraacetic acid (EDTA).
In vitro determination of IC50. IC50 values of the non-radioactive fluorine-containing ligands were determined by screening in a multi-concentration competitive binding assay against ^99mTc-((7S,12S,16S)-1-(1-(carboxymethyl)-1H-imidazol-2-yl)-2-((1-(carboxymethyl)-1H-imidazol-2-yl)methyl)-9,14-dioxo-2,8,13,15-tetraazaoctadecane-7,12,16,18-tetracarboxylic acid technetium tricarbonyl complex) (^99mTc-MIP-1427) for binding to PSMA on LNCaP cells, according to methods previously described. See Hillier S M, Maresca K P, Lu G, Merkin R D, Marquis J C, Zimmerman C N, Eckelman W C, Joyal J L, Babich J W. 99mTc-Labeled Small-Molecule Inhibitors of Prostate-Specific Membrane Antigen for Molecular Imaging of Prostate Cancer. J. Nucl. Med. 2013, 54, 1369-1376, incorporated herein by reference. The LNCaP cells were plated 48 hours prior to the experiment to achieve a density of approximately 5×10^5 cells/well (in triplicate) in RPMI-1640 medium supplemented with 0.25% bovine serum albumin prior to performing the assay. LNCaP cells were incubated for 1 hour with 1 nM ^99mTc-MIP-1427 in serum free RPMI-1640 medium in the presence of 1-10,000 nM test compounds. Radioactive incubation media was then removed by pipette and the cells were washed twice using 1 mL ice-cold HEPES buffer. Cells were harvested from the plates and transferred to tubes for radioactive counting using a Packard Cobra II Gamma Counter. IC50 values were determined by non-linear regression using GraphPad Prism software.

Data set [4] concerns LNCaP tumor. The note with it: literature value, cited from earlier work.
In data set [5] the test system is LNCaP tumor. The note with it: reported study, cited from earlier work; for Tumor uptake (Max. LNCaP Tumor Uptake): 3 h post injection.
Data set [6] deals with T2, PSMA (Homo sapiens, UniProt Q04609).
T2 construct: host or cells: LNCaP
T2 sequence (Q04609 whole entry): as above
The note with it: for PSMA, competitive binding assay using LNCaP cells, literature value, cited from earlier work.

The mark [7] stands for this setting: listed as [^68Ga]Ga-PSMA-HBED-CC.
Where [8] appears, read: 1 h post injection, co-administered with 2-PMPA (blocked).

Data on 8 compounds can be found in patent US12679812B2, “18F-labeled triazole containing PSMA inhibitors” (Cornell University, priority 2016, dated 2026).

“And” between values parts separate entries of the source, which are not always exact repeats. Identical values can stand only once. Like-named read-outs stand apart in the source and are kept apart here. Marks after values point to notes of the source that are not given here.

For `O=C(O)CC[C@H](NC(=O)N[C@@H](CCCCNC(=O)Nc1ccc(-c2cn(CCF)nn2)cc1)C(=O)O)C(=O)O` [RPS-041, (((S)-1-Carboxy-5-(3-(4-(1-(2-fluoroethyl)-1H-1,2,3-triazol-4-yl)phenyl)ureido)pentyl)carbamoyl)-L-glutamic acid], in data set [1] (1 h post injection), the Tumor-to-blood ratio is reported as 20.78±7.87, the “Tumor-to-blood ratio relative to [68Ga]Ga-PSMA-HBED-CC” value is recorded as “more than two-fold” and the “Tumor-to-kidney ratio (contrast) relative to [68Ga]Ga-PSMA-HBED-CC” value is recorded as “twelve-fold greater”. Also, in data set [1] (2 h post injection), the “Contrast (tumor-to-background) relative to [18F]RPS-040” value is “two-fold greater”, the “Uptake in the kidneys” value was 23.93±5.45 % ID/g, the “Uptake in the liver” value came out at 2.51±0.21 % ID/g and the “Uptake in the spleen” value is reported as 1.13±0.47 % ID/g. The “Max. LNCaP Tumor Uptake” value in data set [1] (2 h post injection) was 10.86 ± 1.03^ % ID/g. In addition, the Tumor-to-blood ratio in data set [1] (4 h post injection) amounted to 118.4±69.4. Also, in data set [1], the “Tumor uptake relative to [68Ga]Ga-PSMA-HBED-CC” value was “nearly two-fold greater” and the “Time p.i. of max. LNCaP tumor uptake” value was determined as 2 h. In addition, in data set [1] (2 h post injection, listed as [^18F]RPS-041), the “Max. LNCaP Tumor Uptake” value is 10.86±1.03 % ID/g. Also, the “Max. LNCaP Tumor Uptake” value in data set [2] is 12.51 % ID/g. Besides, in data set [3], the IC50 (commonly the concentration that gives 50% inhibition) was found to be 3.2 nM.
Turning to `O=C(O)CC[C@H](NC(=O)N[C@@H](CCCCNC(=O)Nc1ccc(I)cc1)C(=O)O)C(=O)O` [MIP-1095], the IC50 in data set [3] is 0.3 nM. The “Max. LNCaP Tumor Uptake” value in data set [4] (4 h p.i.) is 34.3 ± 12.7^a % ID/g. Moreover, the “Time p.i. of max. LNCaP tumor uptake” value in data set [4] is listed as 4 h.
Turning to `O=C(O)CC[C@H](NC(=O)N[C@@H](CCCCNC(=O)Nc1cccc(OCc2cn(CCF)nn2)c1)C(=O)O)C(=O)O` [RPS-043, (((S)-1-Carboxy-5-(3-(3-((1-(2-fluoroethyl)-1H-1,2,3-triazol-4-yl)methoxy)phenyl)ureido)pentyl)carbamoyl)-L-glutamic acid], in data set [2], the “Max. LNCaP Tumor Uptake” value was 9.04 ± 1.88^c % ID/g and the “Time p.i. of max. LNCaP tumor uptake” value was 2 h. Besides, in data set [3], the IC50 was determined as 36.5 nM.
`O=C([O-])CN(CCN(CC(=O)[O-])Cc1cc(CCC(=O)NCCCCCC(=O)NCCCC[C@H](NC(=O)N[C@@H](CCC(=O)O)C(=O)O)C(=O)O)ccc1[O-])Cc1cc(CCC(=O)O)ccc1[O-].[68Ga+3].[OH3+]` [^68Ga-PSMA-HBED-CC]: the results for the “Activity in the kidney” value in data set [5] (1 h) and in data set [5] (3 h) were 314.44±90.61 % ID/g and 207.97±58.38 % ID/g, respectively. Besides, the entries for the “Activity in the spleen” value in data set [5] (1 h) and in data set [5] (3 h) were 31.73±14.09 % ID/g and 13.85±3.53 % ID/g, respectively. The Tumor uptake in data set [5] (1 h post injection) is recorded as 5.81±1.67 % ID/g. In addition, the “Tumor uptake (Max. LNCaP Tumor Uptake)” value in data set [5] is recorded as 6.27 ± 1.44 % ID/g; in data set [5] (setting [7]) it was 6.27±1.44 % ID/g. For the same compound, the “Time p.i. of max. LNCaP tumor uptake” value in data set [5] (1 h and 3 h) was 3 h. For the same compound, the figures for the IC50 in data set [6] and in data set [6] (setting [7]) were 24.3 ± 2 nM and ~24 nM, respectively. The “Uptake in the liver or intestine” value in data set [2] (microPET/CT, 1 h post injection) was “No uptake”.
On to `O=C(O)CC[C@H](NC(=O)N[C@@H](CCCCNC(=O)Nc1ccccc1OCc1cn(CCF)nn1)C(=O)O)C(=O)O` [RPS-039, (((S)-1-Carboxy-5-(3-(2-((1-(2-fluoroethyl)-1H-1,2,3-triazol-4-yl)methoxy)phenyl)ureido)pentyl)carbamoyl)-L-glutamic acid], for which, in data set [2], the “Route of clearance / excretion” value is “clearance via the hepatobiliary pathway in addition to renal clearance”; the “Max. LNCaP Tumor Uptake” value is 5.87±0.27 % ID/g and 5.89 ± 0.27^c % ID/g; the “Time p.i. of max. LNCaP tumor uptake” value is recorded as 2 h. The IC50 in data set [3] is 14 nM.
On to `O=C(O)CC[C@H](NC(=O)N[C@@H](CCCCNC(=O)Nc1ccc(OCc2cn(CCF)nn2)cc1)C(=O)O)C(=O)O` [RPS-038, (((S)-1-Carboxy-5-(3-(4-((1-(2-fluoroethyl)-1H-1,2,3-triazol-4-yl)methoxy)phenyl)ureido)pentyl)carbamoyl)-L-glutamic acid], for which, in data set [2], the “Max. LNCaP Tumor Uptake” value is given as 8.87 ± 0.64^c % ID/g and the “Time p.i. of max. LNCaP tumor uptake” value is 2 h. Also, the IC50 in data set [3] was determined as 21.3 nM.
For `O=C(O)CC[C@H](NC(=O)N[C@@H](CCCCNC(=O)Nc1ccccc1-c1cn(CCF)nn1)C(=O)O)C(=O)O` [RPS-042, (((S)-1-Carboxy-5-(3-(2-(1-(2-fluoroethyl)-1H-1,2,3-triazol-4-yl)phenyl)ureido)pentyl)carbamoyl)-L-glutamic acid], in data set [2], the “Route of clearance / excretion” value is listed as “clearance via the hepatobiliary pathway in addition to renal clearance”, the “Max. LNCaP Tumor Uptake” value is on record as 10.06 ± 1.33^c % ID/g and the “Time p.i. of max. LNCaP tumor uptake” value came out at 2 h. For the same compound, in data set [3], the IC50 came to 10.2 nM.
For `O=C(O)CC[C@H](NC(=O)N[C@@H](CCCCNC(=O)Nc1cccc(-c2cn(CCF)nn2)c1)C(=O)O)C(=O)O` [RPS-040, (((S)-1-Carboxy-5-(3-(3-(1-(2-fluoroethyl)-1H-1,2,3-triazol-4-yl)phenyl)ureido)pentyl)carbamoyl)-L-glutamic acid], in data set [1] (1 h post injection), the Tumor-to-blood ratio is 28.8±8.06, the “Tumor-to-blood ratio relative to [68Ga]Ga-PSMA-HBED-CC” value is given as “three-fold greater” and the “Tumor-to-kidney ratio (contrast) relative to [68Ga]Ga-PSMA-HBED-CC” value is recorded as “ten”. Besides, in data set [1] (setting [8]), the “Uptake in the kidneys” value stood at 5.95±1.65 % ID/g, the “Uptake in the spleen” value is recorded as 0.32±0.05 % ID/g and the Tumor uptake is given as 1.75±0.15 % ID/g. Also, in data set [1] (1 h post injection, unblocked), the “Uptake in the kidneys” value worked out at 74.24±10.71 % ID/g, the “Uptake in the spleen” value came out at 4.97±1.55 % ID/g and the Tumor uptake was 12.69±1.56 % ID/g. In data set [1] (2 h post injection), the “Uptake in the kidneys” value is listed as 60.94±8.06 % ID/g, the “Uptake in the liver” value came to 4.72±0.93 % ID/g, the “Uptake in the spleen” value is on record as 3.23±1.26 % ID/g and the “Max. LNCaP Tumor Uptake” value is reported as 14.30 ± 2.49^ % ID/g. In addition, in data set [1] (4 h post injection), the Tumor-to-blood ratio stood at 92.93±75.67. In data set [1], the “Tumor uptake relative to [68Ga]Ga-PSMA-HBED-CC” value is “more than two-fold greater” and the “Time p.i. of max. LNCaP tumor uptake” value is listed as 2 h. Moreover, the “Max. LNCaP Tumor Uptake” value in data set [1] (2 h post injection, listed as [^18F]RPS-040) was determined as 14.30±2.49 % ID/g. Also, the “Max. LNCaP Tumor Uptake” value in data set [2] was 14.30 % ID/g. The IC50 in data set [3] was 7 nM.
